According to US9340577B2, “HLA binding motifs and peptides and their uses” (priority 1992, dated 2016):
Residues, ends and D or L forms follow the SMILES beside them. No end group written: not given here.

Key:
Experiment in all cases: biochemical
Type in all cases: binding
HLA-A11 (A*1101) = HLA-A11 (A*1101) (Homo sapiens, UniProt P04439, A114D/D185E/E176A/F33Y/L180Q/S129P/T187R); parameters: A11: unit not given here
A*3301 = A*3301 (Homo sapiens, UniProt P04439, A270S/D185E/E176V/E277Q/E87N/F33T/G231S/H175R/I121M/I218V/I322F/K168Q/K210R/L300P/L318F/M331R/P217A/Q86R/Q94H/R138Q/T323A/T345S/T97I/V358M/Y195H)
A31 (A*3101) = A31 (A*3101) (Homo sapiens, UniProt P04439, A270S/D185E/E176V/E277Q/F33T/G231S/G80R/H175R/I121M/I218V/I322F/K168Q/L300P/L318F/M331R/P217A/Q94H/R138Q/T323A/T345S/T97I/V358M)
HLA-A3.2 (A*0301) = HLA-A3.2 (A*0301) (Homo sapiens, UniProt P04439)
A*6801 = A*6801 (Homo sapiens, UniProt P04439, A269V/D185E/E176V/E277Q/E87N/F33Y/G231S/I121M/I166T/I218V/L180W/L300P/L318F/N151K/P208A/P217A/Q86R/R169H/T345S)
HLA-A*0201 (HLA-A2.1) = HLA-A*0201 (HLA-A2.1) (Homo sapiens, UniProt P04439, D140Y/D185E/D98H/E176V/E277Q/G131W/G231S/I119V/I121R/I166T/I218V/L300P/L318F/N151K/N90K/P208A/P217A/Q86G/Q94H/R138H/R169H/T345S)

Row | Compound | IC50 (HLA-A11 (A*1101)) [nM] | IC50 (A*3301) [nM] | IC50 (A31 (A*3101)) [nM] | IC50 (HLA-A3.2 (A*0301)) [nM] | IC50 (A*6801) [nM] | A11 (HLA-A11 (A*1101)) | A2.1 (HLA-A*0201 (HLA-A2.1)) | A3.2 (HLA-A3.2 (A*0301); Table 164, MAGE peptides, binding value to HLA-A3.2, no unit given)
1 | KQFLQGVPK [Peptide 88.0390] | 17 | 5180 | 44 | 32 | – | – | – | –
2 | VVFGILIKRK [Peptide 9012.0246] | 13 | 10100 | 2600 | 54 | – | – | – | –
3 | VLYGPANTGK [Peptide 88.0180] | 25 | – | 1930 | 9.8 | – | – | – | –
4 | KAILGQVVR [Peptide 9017.0092] | 5340 | > 20000 | – | 15500 | 159 | – | – | –
5 | VVPALSVSK [Peptide 1589.14] | 33 | > 20000 | > 20000 | 515 | – | – | – | –
6 | FTAFLGAFK [Peptide 88.0362] | 3.8 | 71 | – | 31 | 5.4 | – | – | –
7 | CC[C@H](C)[C@H](NC(=O)[C@H](CS)NC(=O)[C@H](CCCNC(=N)N)NC(=O)[C@@H](NC(=O)[C@@H](N)CC(C)C)[C@@H](C)CC)C(=O)N[C@H](C(=O)N[C@@H](CS)C(=O)N[C@@H](CCC(N)=O)C(=O)N[C@@H](CCCCN)C(=O)O)[C@@H](C)CC [Peptide 88.0298] (H-LIRCIICQK-OH) | 252 | 834 | 639 | 445 | – | – | – | –
8 | VLCGPPNTGK [Peptide 88.0189] | 220 | > 20000 | 370 | 141 | – | – | – | –
9 | VTIKIGGQIK [Peptide 1516.02] | 184 | > 20000 | 19300 | 1110 | – | – | – | –
10 | VVCTYSPALNK [Peptide 1556.35] | 104 | > 20000 | 5190 | 370 | – | – | – | –
11 | SVRKLVEDR [Peptide 9017.0105] | 1140 | 187 | 15 | 5100 | – | – | – | –
12 | FAFTDLTIVY [Peptide 78.0103] | > 20000 | > 20000 | > 20000 | > 20000 | – | – | – | –
13 | VVYRLVWDK [Peptide 1589.38] | 13 | 3780 | 989 | 63 | – | – | – | –
14 | LQQTSLEMWR [Peptide 88.0228] | 445 | > 20000 | – | 13100 | – | – | – | –
15 | NTKATLLYK [Peptide 88.0385] | 109 | 168 | 3820 | 396 | – | – | – | –
16 | KVCSGVDYR [Peptide 1589.35] | 5170 | 5780 | – | > 20000 | – | – | – | –

Row | Compound | IC50 (HLA-A11 (A*1101)) [nM] | IC50 (A*3301) [nM] | IC50 (A31 (A*3101)) [nM] | IC50 (HLA-A3.2 (A*0301)) [nM] | IC50 (A*6801) [nM] | A11 (HLA-A11 (A*1101)) | A2.1 (HLA-A*0201 (HLA-A2.1)) | A3.2 (HLA-A3.2 (A*0301); Table 164, MAGE peptides, binding value to HLA-A3.2, no unit given)
17 | ALTALIKPK [Peptide 9017.0098] | 19 | > 20000 | – | 24 | 6020 | – | – | –
18 | VSIEWRKRR [Peptide 9017.0090] | 77 | 58 | 9.2 | 2650 | – | – | – | –
19 | QQRSLTEILK [Peptide 9012.0218] | 93 | > 20000 | – | 520 | – | – | – | –
20 | KQMSMSQWIK [Peptide 1587.09] | 17 | – | 50 | 49 | – | – | – | –
21 | VTVYDGVPVWR [Peptide 1525.08] | 246 | 5720 | – | 7840 | 59 | – | – | –
22 | TVRHKKLMFK [Peptide 1556.79] | 188 | 11800 | 5100 | 440 | – | – | – | –
23 | TLDVYMIMVK [Peptide 9012.0258] | 17 | > 20000 | – | 1560 | 2030 | – | – | –
24 | SQTCALYWFR [Peptide 88.0165] | 1830 | 260 | – | 4850 | – | – | – | –
25 | ALTALITPK [Peptide 9017.0099] | 16 | – | 439 | 17 | – | – | – | –
26 | FLIIVLVMIA | – | – | – | – | – | 0.0030 | 0.0003 | 0.0093
27 | KSLFGMSLMK [Peptide 1587.13] | 1.5 | > 20000 | 271 | 4.4 | – | – | – | –
28 | WFFVETIVEK [Peptide 88.0171] | 1480 | 201 | 18300 | 13700 | – | – | – | –
29 | LALTALITPK [Peptide 9017.0228] | 6.6 | > 20000 | 1730 | 88 | – | – | – | –
30 | RIGILRQRR [Peptide 9017.0113] | 1140 | – | 7.6 | 277 | – | – | – | –
31 | WTLELLEELK [Peptide 9017.0238] | 3840 | > 20000 | 17200 | > 20000 | – | – | – | –
